Measured values from patent US12049646B2, “SC-beta cells and compositions and methods for generating the same” (President and Fellows of Harvard College, priority 2013, dated 2024).

Experiments:
Type in all cases: cell-based, human
SC-β cells [1] = test: GSIS of SC-β cells after adding factors to the CMRL media at the last differentiation step (Stage 6); conditions: factor added to CMRL media containing Alk5 inhibitor and T3 hormone, versus CMRL only, CMRL+Alk5 inhibitor+T3 or S3+Alk5 inhibitor+T3; for stimulation index (ratio of insulin secreted in high glucose to low glucose): 15 mM vs 2.5 mM glucose
Description: To induce the in vitro maturation of at least some of the Pdx1-positive, NKX6-1-positive, insulin-positive endocrine cells into SC-β cells, the Pdx1-positive, NKX6-1-positive, insulin-positive endocrine cells are maintained in a suitable culture medium for a sufficient period of time. […] Adding additional factors to the CMRL media at the last step of differentiation (Stage 6) (FIG. 14A), however, was also found to generate a better glucose stimulated insulin secretion (GSIS) response by SC-β cells as measured by either stimulation index between high and low glucose challenges or by the amount of insulin released. Such additional factors may include, but are not limited to, Sant1, XXI, and SSP. The stimulation index, as calculated by the ratio of insulin secreted in high glucose (15 mM) to low glucose (2.5 mM), was greater for the SC-β cells maintained in a CMRL media containing Alk5 inhibitor, T3 hormone and either Sant1, XXI or SSP than those SC-β cells maintained in only CMRL media, CMRL media containing Alk5 inhibitor and T3 hormone, or S3 media containing Alk5 inhibitor and T3 hormone (FIG. 14B). Furthermore, the amount of insulin secreted was greater for the SC-β cells maintained in a CMRL media containing Alk5 inhibitor, T3 hormone and either Sant1, XXI or SSP than those SC-β cells maintained in only CMRL media, CMRL media containing Alk5 inhibitor and T3 hormone, or S3 media containing Alk5 inhibitor and T3 hormone (FIG. 14C).
Alternatively, Days 21-35: CMRLS+10 μM Alk5i II+1 μM T3+Sant1.
Alternatively, Days 21-35: CMRLS+10 μM Alk5i II+1 μM T3+XXI.
Alternatively, Days 21-35: CMRLS+10 μM Alk5i II+1 μM T3+SSP.

hPSC derived cells = test: Protocol modifications at Steps 3-6: cell survival and marker-positive populations; conditions: for cell survival: treatment during Steps 3-5 of differentiation
Description: One challenge for the stem cell field has been generating a sufficient quantity of SC-β cells that can be useful for drug screening, disease modeling, or therapeutic use. For example, hES cells are technically difficult to culture, are vulnerable to apoptosis upon cellular detachment and dissociation, undergo massive cell death particularly after complete dissociation, and have low cloning efficiency. (Watanabe, K. et al., Nature Biotechnology 25, 681-686 (2007)). As a result, the quantity of viable SC-β cells yielded may be low. By modify the protocol between Steps 3 and 6 in the manner shown in FIG. 15A, more pure NKX6.1+ endocrine clusters can be generated (FIG. 15B) leading to more SC-β cells that can be therapeutically useful.
In Steps 3-5, for instance, cell survival can be improved by adding a rho-associated protein kinase inhibitor, or a Rock inhibitor. It is believed that the addition of a Rock inhibitor enhances survival of ES cells by preventing dissociation-induced apoptosis thus increasing their cloning efficiency. (Watanabe et al.) Examples of Rock inhibitors include, but are not limited to, Y-27632, Fasudil/HA1077, and H-1152.
In addition to treating the cells with a Rocki inhibitor, the cells in Steps 3-4 can be treated with ActivinA alone or in combination with Nicotinamide. […] Since SOX2 and NKX6-1 are mutually exclusive (FIG. 15E), down-regulation of SOX2 results in the up-regulation of NKX6-1, a marker for a mature pancreatic β cell.
In Steps 5-6, cell survival can further be enhanced by treating cells with staurosporine. Staurosporine is known to be an activator of neuronal, glial, and stem cell-like neurosphere differentiation and is also thought to induce apoptosis. (Schumacher, et al., Mol. Cell. Neurosci. 2003; 23(4): 669-680).
Finally, cell survival can further be enhanced by treating cells with a culture medium containing Alk5i, T3 in combination with XXI, a γ-secretase inhibitor that improves β cell maturation.
Cells were dispersed into single-cell suspension by incubation in TrypLE Express at 37° C. for 10-30 min in a 15 ml falcon tube. Starting at stage 5, clusters take longer to dissociate into single cells. Clusters should be incubated with TrypLE Express until they dissociate to single cells upon mixing by pipetting gently up and down with a P1000. The TrypLE Express was quenched with 3-4 times media and cells were spun down for 5 min at 1000 rpm. Cells were washed twice in PBS and transferred to a 1.7 ml Safe seal microcentrifuge tube (Bioscience Inc.; 11510). Make sure having 1-10 mio cells/tube and use 0.5-1 ml volumes in the following. Cells were resuspended in 4% paraformaldehyde (PFA) (Electron Microscopy Science Nm; 15710) and incubated on ice for 30 min. Cells were then washed 3 times in PBS followed by incubation in blocking buffer (PBS+0.1% TritonX100 (VWR; EM-9400)+5% donkey serum (Jackson Immunoresearch; 017-000-121)) on ice for 1 hour. After fixation cells are more resistant to centrifugation, so after fixation all centrifugations were done at 3000 g for 3 min. Cells were then resuspended in blocking buffer with primary antibodies and incubated at 4° C. overnight. […]

SC-β cells [2] = test: Insulin secretion of plated SC-β cells treated with anti-diabetic drugs in 2 and 20 mM glucose; conditions: drug-treated versus control
Description: The inventors first tested whether SC-β cells could respond to existing anti-diabetic drugs from several different classes (FIG. 16B). LY2608204 is glucokinase activator in clinical trials while liraglutide, tolbutamide, and nateglinide are examples of GLP-1 agonists and secretagogues (sulfonylureas and meglitinides), respectively, that have been used clinically (Matschinsky, 2009; Modi, 2007; Vetere et al., 2014).

Cc1nn(-c2ccccc2)c(C)c1/C=N/N1CCN(Cc2ccccc2)CC1 [Sant1]
stimulation index (ratio of insulin secreted in high glucose to low glucose) (SC-β cells [1]): greater
amount of insulin secreted (SC-β cells [1]): greater

NC(=O)c1cccnc1 [Nicotinamide]
cell survival (hPSC derived cells): improve cell survival

CC(C)[C@H]1CC[C@H](C(=O)N[C@H](Cc2ccccc2)C(=O)O)CC1 [nateglinide]
insulin secretion of SC-β cells following a glucose challenge (SC-β cells [2]): trend toward responding to treatment with these drugs by increasing insulin secretion

CCCCNC(=O)NS(=O)(=O)c1ccc(C)cc1 [tolbutamide]
insulin secretion of SC-β cells following a glucose challenge (SC-β cells [2]): trend toward responding to treatment with these drugs by increasing insulin secretion

CN[C@@H]1C[C@H]2O[C@@](C)([C@@H]1OC)n1c3ccccc3c3c4c(c5c6ccccc6n2c5c31)C(=O)NC4 [staurosporine]
percentage of Chromogranin A (pancreatic endocrine cell marker) (hPSC derived cells; treatment in Steps 5-6): increasing the percentage of Chromogranin A
percentage of NKX6-1/C-peptide+ cells (hPSC derived cells; treatment in Steps 5-6): increasing the percentage of NKX6-1.C-peptide+ cells

O=C(Nc1ncc(SCCN2CCCC2)s1)[C@]1(c2ccc(S(=O)(=O)C3CC3)cc2)C[C@H]1C1CCCCC1 [LY2608204]
insulin secretion of SC-β cells following a glucose challenge (SC-β cells [2]): trend toward responding to treatment with these drugs by increasing insulin secretion

C[C@H](NC(=O)Cc1cc(F)cc(F)c1)C(=O)N[C@H]1N=C(c2ccccc2)c2ccccc2N(C)C1=O [XXI]
stimulation index (ratio of insulin secreted in high glucose to low glucose) (SC-β cells [1]): greater
amount of insulin secreted (SC-β cells [1]): greater
NeuroD1+ population (hPSC derived cells; added to medium with Alk5i and T3 at Steps 5 and 6, versus Alk5i and T3 only): increase the NeuroD1+ population

B1: Activin A: growth factor from the TGF-β superfamily (protein, UniProt P08476 311-426, looked up)
Inhibin beta A chain: GLECDGKVNICCKKQFFVSFKDIGWNDWIIAPSGYHANYCEGECPSHIAGTSGSSLSFHSTVINHYRMRGHSPFANLKSCCVPTKLRPMSMLYYDDGQNIIKKDIQNMIVEECGCS
modifications: Inhibin beta A chain
notes: growth factor from the TGF-β superfamily
cell survival (hPSC derived cells): improve cell survival
